The results in this text go back to patent US20050074867A1, “Preservation of competent cells at ambient temperatures” (priority 2001, published 2005).

This assay concerns commercial electrocompetent E. coli cells. The assay can be described thus: Preservation yield and stability of commercial electrocompetent E. coli cells. It counts as cell-based. The method, then: (4) Preservation of electrocompetent E. coli cells: The cells (resuspended in PBS buffer or on 20% sucrose) were mixed with an equal mass of preservation solution consisting of 45% 2:1 sucrose:raffinose or 45% 4:1 sucrose:MAG on ice. Altematively, the cell pellets were resuspended directly in 22.5% sucrose:raffinose or 22.5% 4:1 sucrose:MAG. The 0.5 g aliquots were distributed in 5 ml glass serum vials or 0.2 g aliquots were distributed in 1.2 ml glass serum vials. To determine the survival in preservation solution before drying, cell-containing mixtures were diluted in PBS buffer containing 20% sucrose and appropriate dilutions were spread plated in duplicate on L-agar plates.
The samples were dried by foam formation. The mixtures were foamed at 0° C. and kept at that temperature until foam formation occurred. After foam was well formed, shelf temperature was increased to 20° C. and drying continued overnight (at least 12 hours).
When applicable, electrocompetent cells were frozen in the following manner. The cell suspension (100 μl) was mixed with 10% DMSO (10 μl) and slowly frozen at −80° C.
(5) Assaying the preserved E. coli cells: Dried samples were rehydrated at room temperature. 1 ml of rehydration solution (20% sucrose) was added to the 5 ml vials and 0.2 ml was added to the 1.2 ml vials. For the determination of preservation survival, rehydrated cells were diluted and spread plated in duplicate on L-agar plates. Plates were incubated at 37° C. overnight and colonies were counted the following day.
In this example, commercial electrocompetent E. coli cells, in the form of a bacterial pellet, were preserved by the foam formation process. The cells were concentrated 100-fold and preserved as described previously. To increase desiccation tolerance and enhance preservation survival. One aliquot of the cells were loaded in vitro with 10% MAG. The preserved cells were stored at 4° C. In addition to preservation by foam formation, the cells were preserved by slow freezing (with 10% DMSO) at −80° C.

Setting [1] is: Frozen cells 72 hours at −80° C., foam formation-preserved cells (loaded with 10% MAG) dried overnight.
Setting [2] is: foam-preserved cells stored at 4° C., frozen cells at −80° C.

Where “and” joins values, the source holds several entries; their conditions need not be identical. Equal values may be shown once.

As for `COC1OC(CO)C(O)C(O)C1O` (stereo not shown) [MAG, a-methyl-glucoside], under setting [1], the “Preservation Yield Cfu/ml” value is given as 8.8 × 10^9 +/− 3.9 × 10^8 Cfu/ml; the Preservation yield % was 63.6% and 63.6 +/− 2.8%. Under setting [2], the “Stability (12 days) %” value was 68.5% and 68.5 +/− 0.8%; the “Stability (12 days) Cfu/ml” value was 9.5 × 10^9 +/− 1.1 × 10^8 Cfu/ml.
